Laboratory results taken from patent US20130310306A1, “HUMAN LACTOFERRIN DERIVED PEPTIDES AND THEIR USE” (PharmaSurgics In Sweden AB, priority 2011, published 2013).
“Also recorded” adds a separate entry of the source.

Columns and labels:
S. aureus (CCUG 1800) = experiment: Minimal microbicidal concentration (MMC99) assay, S. aureus; type: cell-based
Procedure: Antimicrobial Activity was Measured as Bactericidal Effect on S. Aureus Using Minimal Microbicidal Concentration, MMC99, Assay)
S. aureus (#1800; CCUG, Gothenburg, Sweden) cultured on blood-agar plates [Columbia agar (Oxoid, Basingstoke, UK) supplemented with 5% defibrinated horse blood (National Veterinary Institute (SVA), Uppsala, Sweden)] were transferred to brain heart infusion broth (3.7% BHI; Difco, BD Diagnostics, Franklin Lakes, N.J., USA) and incubated in a shaker at 250 rpm+37° C. over night. The culture was thereafter be diluted 1:10 in fresh BHI broth and incubated for additional two hours to reach log-phase growth. The bacteria were pelleted and suspended in 1% BHI medium (BHI broth diluted 100 times in ultra-pure water) to a concentration of 10^7 bacteria/ml as estimated by measuring optical density at 600 nm. Peptides were serially diluted by two-fold steps from 160 μM to 1.25 μM in 1% BHI medium. The peptides (100 μl) were thereafter incubated with bacteria (5 μl á 10^7 bact./ml) for 2 hours at +37° C. Drops (5 μl) of the suspension were placed on blood agar plates. The blood agar plates were incubated over night at +37° C. The MMC99 values, i.e. the lowest peptide concentration needed to achieve a 99% reduction of viable bacteria, were recorded (Table 3). The concentration of the bacterial suspension used in the assay was confirmed by viable counts on blood agar plates.
S. aureus (#1800; CCUG, Gothenburg, Sweden) cultured on blood-agar plates [Columbia agar (Oxoid, Basingstoke, UK) supplemented with 5% defibrinated horse blood (National Veterinary Institute (SVA), Uppsala, Sweden)] were transferred to brain heart infusion broth (3.7% BHI; Difco, BD Diagnostics, Franklin Lakes, N.J., USA) and incubated in a shaker at 250 rpm+37° C. over night. The culture was thereafter be diluted 1:10 in fresh BHI broth and incubated for additional two hours to reach log-phase growth. The bacteria were pelleted and suspended in 1% BHI medium (BHI broth diluted 100 times in ultra-pure water) to a final concentration of 10^7 bacteria/ml as estimated by measuring optical density at 600 nm. Peptides were serially diluted by two-fold steps from 400 μM to 0.78 μM in either 1% BHI medium or in 50% heat inactivated simulated wound fluid [SWF, containing 1 part 0.1% peptone (Oxoid, Basingstoke, UK) in saline and 1 part fetal bovine serum, diluted 2 times in ultra-pure water].
The peptides (100 μl) were thereafter incubated with bacteria (5 μl á 10^7 bact./ml) for 2 hours at +37° C. Drops (5 μl) of the suspension were placed on blood agar plates. The blood agar plates were incubated over night at +37° C. The MMC99 values, i.e. the lowest peptide concentration needed to achieve a 99% reduction of viable bacteria were recorded (Table 6). The concentration of the bacterial suspension used in the assay was confirmed by viable counts on blood agar plates.
(§1) The antimicrobial effects of the peptide 265 (SEQ ID NO: 27) was analysed by MMC99 (minimal microbicidal concentration) assay against S. aureus (CCUG 1800), MRSA (CCUG 41879), P. aeruginosa (ATCC 15442), E. coli (CCUG 31246), S. pyogenes (CCUG 4207), P. acnes (CCUG 1794T), S. epidermidis (ATCC12228), K. pneumoniae (ATCC 13883), A. baumannii (ATCC 19606), and C. albicans (ATCC 64549). The peptides were purchased from Biopeptide Company (San Diego, Calif., USA) and Bachem AG (Bubendorf, Switzerland) and results are presented in Table 8A and 8B respectively.
(§2) Peptide was serially diluted in two different assay medium, 1% BHI medium (brain-heart infusion medium) or 50% heat inactivated simulated wound fluid (SWF), and thereafter incubated with the microorganisms for 2 hours. Drops of the suspension were placed on blood agar plates. The MMC99 values, i.e. the lowest peptide concentration needed to achieve a 99% reduction of viable microorganisms, were recorded. As presented in Table 8, the peptide has the ability to kill microorganisms frequently appearing in infections.

MRSA (CCUG 41879) [1] = experiment: MMC99 assay, MRSA; type: cell-based, methicillin resistant S. aureus; details: Table 8A
Procedure: as §1, §2

[2] = test system: P. aeruginosa (ATCC 15442); experiment: MMC99 assay, P. aeruginosa; type: cell-based; details: Table 8A
Procedure: as §1, §2

E. coli (CCUG 31246) = experiment: MMC99 assay, E. coli; type: cell-based; details: Table 8A
Procedure: as §1, §2

P. acnes (CCUG 1794T) = experiment: MMC99 assay, P. acnes; type: cell-based; details: Table 8A
Procedure: as §1, §2

S. pyogenes (CCUG 4207) = experiment: MMC99 assay, S. pyogenes; type: cell-based; details: Table 8A
Procedure: as §1, §2

[3] = test system: S. epidermidis (ATCC12228); experiment: MMC99 assay, S. epidermidis; type: cell-based; details: Table 8B
Procedure: as §1, §2

[4] = test system: K. pneumoniae (ATCC 13883); experiment: MMC99 assay, K. pneumoniae; type: cell-based; details: Table 8B
Procedure: as §1, §2

[5] = test system: A. baumannii (ATCC 19606); experiment: MMC99 assay, A. baumannii; type: cell-based; details: Table 8B
Procedure: as §1, §2

C. albicans (ATCC 64549) = experiment: MMC99 assay, C. albicans; type: cell-based; details: Table 8B
Procedure: as §1, §2

MRSA (CCUG 41879) [6] = experiment: In vivo antimicrobial effect in excision wound model in rats; design: species or system rat; details: peptide in H2O 0.1, 0.5 and 2 mg/ml, single administration, two hours, vs control (H2O)
Description: (§3) FIG. 4. Dose-response effect of peptide 265 (A) on bacterial colonization of infected excision wounds in rats. […] Results are presented as relative bacterial survival (%) compared to control group ±SEM (n=15 wounds). Statistical significance was estimated by Student's t test. *=p<0.05, **=p<0.01, ***=p<0.001.
The in vivo antimicrobial effects of the peptide 265 (SEQ ID NO: 27) was investigated in an excision wound model in rats. The wounds were inoculated with methicillin resistant S. aureus (MRSA) for two hours, followed by a single administration of peptide or control (H2O) for two hours before termination and harvest of the bacteria.

S. aureus = experiment: Antimicrobial effect in infected wounds, ex vivo model on pig skin; details: S. aureus in PBS/serum (50/50); peptide in H2O 0.1, 0.5 and 2 mg/ml, single administration, four hours; vs placebo (H2O)
Description: as §3, with “5. Dose response” for “4. Dose-response”, “(A),” for “(A)”, “infected” for “infected excision”, “pig skin.” for “rats.”, “(n=10” for “(n=15”
The antimicrobial effects of the peptide 265 (SEQ ID NO: 27) was investigated in an ex vivo model on pig skin. The wounds were inoculated with S. aureus in the presence of PBS/Serum 50/50. Two hours after inoculation the wounds were treated with a single administration of the peptide or placebo (H2O). Four hours after the treatment bacteria were harvested and viable counts of each wound were determined.

[7] = test system: TNF-α production in LPS stimulated THP-1 cells; experiment: Inhibition of TNF-α production in LPS stimulated THP-1 cells (ELISA); details: screen 2, mean relative secretion

For FRQWKRWMRKVFHSWRRW [Peptide 265], the “MMC99 S. aureus 1% BHI” value (S. aureus (CCUG 1800); 1% BHI, Table 8A) was 4 µg/mL, the “MMC99 S. aureus 50% SWF” value (S. aureus (CCUG 1800); 50% SWF, Table 8A) was 8 µg/mL and the “MMC99 μM in 1% BHI medium” value (S. aureus (CCUG 1800); screen 2, 1% BHI medium, 2 hours) was 6.25 µM. For the same sequence, the “MMC99 μM in 50% SWF” value (S. aureus (CCUG 1800); screen 2, 50% heat inactivated simulated wound fluid, 2 hours) was 12.5 µM, the “MMC99 MRSA 1% BHI” value (MRSA (CCUG 41879) [1]; 1% BHI) was 6 µg/mL and the “MMC99 MRSA 50% SWF” value (MRSA (CCUG 41879) [1]; 50% SWF) was 50 µg/mL. For the same sequence, the “MMC99 P. aeruginosa 1% BHI” value ([2]; 1% BHI) was 4 µg/mL, the “MMC99 P. aeruginosa 50% SWF” value ([2]; 50% SWF) was 134 µg/mL and the “MMC99 E. coli 1% BHI” value (E. coli (CCUG 31246); 1% BHI) was 5 µg/mL. The “MMC99 E. coli 50% SWF” value (E. coli (CCUG 31246); 50% SWF) was 67 µg/mL, the “MMC99 P. acnes 1% BHI” value (P. acnes (CCUG 1794T); 1% BHI) was under 3 µg/mL and the “MMC99 P. acnes 50% SWF” value (P. acnes (CCUG 1794T); 50% SWF) was 50 µg/mL. The “MMC99 S. pyogenes 1% BHI” value (S. pyogenes (CCUG 4207); 1% BHI) was under 3 µg/mL, the “MMC99 S. pyogenes 50% SWF” value (S. pyogenes (CCUG 4207); 50% SWF) was 25 µg/mL and the “MMC99 S. epidermidis 1% BHI” value ([3]; 1% BHI) was under 2 µg/mL. For the same sequence, the “MMC99 S. epidermidis 50% SWF” value ([3]; 50% SWF) was 6 µg/mL, the “MMC99 K. pneumoniae 1% BHI” value ([4]; 1% BHI) was 3 µg/mL and the “MMC99 K. pneumoniae 50% SWF” value ([4]; 50% SWF) was 25 µg/mL. For the same sequence, the “MMC99 A. baumannii 1% BHI” value ([5]; 1% BHI) was under 2 µg/mL, the “MMC99 A. baumannii 50% SWF” value ([5]; 50% SWF) was 12 µg/mL and the “MMC99 C. albicans 1% BHI” value (C. albicans (ATCC 64549); 1% BHI) was 6 µg/mL. The “MMC99 C. albicans 50% SWF” value (C. albicans (ATCC 64549); 50% SWF) was 100 µg/mL, the “bacterial colonization of infected excision wounds in rats” value (MRSA (CCUG 41879) [6]) was “significant reduction in bacterial counts in a dose response fashion; also recorded: pronounced antimicrobial effect” and the “bacterial colonization of infected wounds in pig skin” value (S. aureus) was “significant reduction in bacterial counts with a dose response relation; also recorded: highly effective”. The “TNF-α at 40 μM peptide” value ([7]; stimulated level without peptide = 100%, basal = 0%, 40 μM peptide) was 13.8%, the “TNF-α at 4 μM peptide” value ([7]; 4 μM peptide) was 87.0% and the “TNF-α at 10 μM peptide” value ([7]; 10 μM peptide) was 31.1%.
